Laboratory results reported in US10407422B2, “Triazolopyridine inhibitors of myeloperoxidase” (priority 2015, dated 2019).

What was measured:
myeloperoxidase (MPO) [1] = target: T1, myeloperoxidase (MPO) (Homo sapiens (Human), UniProt P05164); assay: MPO chlorination assay (APF assay); format: biochemical; settings: potency range class
Procedure, shortened: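 Chlorinating activity followed by APF cleavage to fluorescein (485/535 nm, 3 min kinetic read) after adding APF and 10 μM H2O2. Beforehand, 200 pM enzyme, compound and 120 mM NaCl sat 10 min at room temperature in 100 mM KPi, pH 7.4. Initial-rate slopes gave % inhibition; IC50 by Hill-slope fit.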

myeloperoxidase (MPO) [2] = target: T1, myeloperoxidase (MPO); assay: MPO peroxidation assay (Amplex Red assay); format: biochemical; settings: potency range class
Procedure, shortened: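 IC50 values come from a four-parameter fit of rates taken from the linear 180-540 s portion of a 15 min kinetic read of resorufin (Ex 535/Em 590 nm). Amplex Red (200 μM) plus 10 mM H2O2 was added after a 10 min room-temperature preincubation of inhibitor with 200 pM MPO and 40 nM H2O2 in 100 mM KPi, pH 7.4.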

T1 sequence (P05164 49-745): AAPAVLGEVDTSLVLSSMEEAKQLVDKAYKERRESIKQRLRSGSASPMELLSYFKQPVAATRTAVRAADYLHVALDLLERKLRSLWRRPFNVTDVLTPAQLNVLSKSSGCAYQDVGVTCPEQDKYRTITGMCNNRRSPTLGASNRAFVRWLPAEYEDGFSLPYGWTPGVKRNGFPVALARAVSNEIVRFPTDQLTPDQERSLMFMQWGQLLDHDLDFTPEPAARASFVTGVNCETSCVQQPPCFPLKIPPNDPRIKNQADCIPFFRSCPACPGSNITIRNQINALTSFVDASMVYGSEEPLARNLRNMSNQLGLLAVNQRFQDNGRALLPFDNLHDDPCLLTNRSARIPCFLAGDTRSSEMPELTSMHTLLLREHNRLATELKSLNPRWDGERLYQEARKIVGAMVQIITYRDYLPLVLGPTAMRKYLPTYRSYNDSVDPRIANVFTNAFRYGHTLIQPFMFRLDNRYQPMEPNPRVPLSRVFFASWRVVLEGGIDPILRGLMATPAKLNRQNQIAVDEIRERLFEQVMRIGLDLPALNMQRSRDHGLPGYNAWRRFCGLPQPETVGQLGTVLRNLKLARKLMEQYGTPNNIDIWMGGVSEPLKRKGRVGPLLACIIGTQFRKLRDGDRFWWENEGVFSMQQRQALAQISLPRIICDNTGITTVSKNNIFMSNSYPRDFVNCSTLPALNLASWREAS

| IC50 (myeloperoxidase (MPO) [1]) | IC50 (myeloperoxidase (MPO) [2]) | Compound |
| --- | --- | --- |
| 101 to 999 nM | 1 to 100 nM | Nc1cc(Cc2cnn(Cc3nc(-c4ccccc4)no3)c2)c2nn[nH]c2n1 [Example 120, 7-((1-((3-Phenyl-1,2,4-oxadiazol-5-yl)methyl)-1H-pyrazol-4-yl)methyl)-3H-[1,2,3]triazolo[4,5-b]pyridin-5-amine] |
| 101 to 999 nM | 1 to 100 nM | Nc1cc(Cc2cnn(Cc3cc(-c4ccccc4)on3)c2)c2nn[nH]c2n1 [Example 121, 7-((1-((5-Phenylisoxazol-3-yl)methyl)-1H-pyrazol-4-yl)methyl)-3H-[1,2,3]triazolo[4,5-b]pyridin-5-amine] |
| 101 to 999 nM | 1 to 100 nM | CS(=O)(=O)c1cccc(Cn2cc(Cc3cc(N)nc4[nH]nnc34)cn2)c1 [Example 122, 7-((1-(3-(Methylsulfonyl)benzyl)-1H-pyrazol-4-yl)methyl)-3H-[1,2,3]triazolo[4,5-b]pyridin-5-amine] |
| 1 to 100 nM | 1 to 100 nM | Nc1cc(Cc2cnn(Cc3cccc(-c4ccccc4)n3)c2)c2nn[nH]c2n1 [Example 123, 7-((1-((6-Phenylpyridin-2-yl)methyl)-1H-pyrazol-4-yl)methyl)-3H-[1,2,3]triazolo[4,5-b]pyridin-5-amine] |
| 1 to 100 nM | 1 to 100 nM | Nc1cc(Cc2cnn(Cc3cccc(-c4cccnc4)c3)c2)c2nn[nH]c2n1 [Example 124, 7-((1-(3-(Pyridin-3-yl)benzyl)-1H-pyrazol-4-yl)methyl)-3H-[1,2,3]triazolo[4,5-b]pyridin-5-amine] |
| 1 to 100 nM | 1 to 100 nM | Nc1cc(Cc2cnn(Cc3cncc(-c4ccccc4)c3)c2)c2nn[nH]c2n1 [Example 125, 7-((1-((5-Phenylpyridin-3-yl)methyl)-1H-pyrazol-4-yl)methyl)-3H-[1,2,3]triazolo[4,5-b]pyridin-5-amine] |
| 101 to 999 nM | 1 to 100 nM | Nc1cccc(Cn2cc(Cc3cc(N)nc4[nH]nnc34)cn2)c1 [Example 126, 7-((1-(3-Aminobenzyl)-1H-pyrazol-4-yl)methyl)-3H-[1,2,3]triazolo[4,5-b]pyridin-5-amine] |
| 101 to 999 nM | 101 to 999 nM | Nc1cc(Cc2cnn(Cc3ccc4cnccc4c3)c2)c2nn[nH]c2n1 [Example 127, 7-((1-(Isoquinolin-6-ylmethyl)-1H-pyrazol-4-yl)methyl)-3H-[1,2,3]triazolo[4,5-b]pyridin-5-amine] |
| 101 to 999 nM | 1 to 100 nM | Nc1cc(Cc2cnn(Cc3ccc4ncccc4c3)c2)c2nn[nH]c2n1 [Example 128, 7-((1-(Quinolin-6-ylmethyl)-1H-pyrazol-4-yl)methyl)-3H-[1,2,3]triazolo[4,5-b]pyridin-5-amine] |
| 1000 to 10000 nM | 101 to 999 nM | CC(C)(C)OC(=O)N1CCc2cc(Cn3cc(Cc4cc(N)nc5[nH]nnc45)cn3)ccc2C1 [Example 129, tert-Butyl 6-((4-((5-amino-3H-[1,2,3]triazolo[4,5-b]pyridin-7-yl)methyl)-1H-pyrazol-1-yl)methyl)-3,4-dihydroisoquinoline-2(1H)-carboxylate] |
| 101 to 999 nM | 101 to 999 nM | Nc1cc(Cc2cnn(Cc3ccc4c(c3)CCN(C(=O)c3ncc[nH]3)C4)c2)c2nn[nH]c2n1 [Example 131, (6-((4-((5-Amino-3H-[1,2,3]triazolo[4,5-b]pyridin-7-yl)methyl)-1H-pyrazol-1-yl)methyl)-3,4-dihydroisoquinolin-2(1H)-yl)(1H-imidazol-2-yl)methanone] |
| 1 to 100 nM | 1 to 100 nM | Nc1cc(Cc2cnn(Cc3ccc4[nH]c(=O)ccc4c3)c2)c2nn[nH]c2n1 [Example 132, 6-((4-((5-Amino-3H-[1,2,3]triazolo[4,5-b]pyridin-7-yl)methyl)-1H-pyrazol-1-yl)methyl)quinolin-2(1H)-one] |
| 1 to 100 nM | 1 to 100 nM | Nc1cc(Cc2cnn(Cc3cccc(-c4ccccn4)c3)c2)c2nn[nH]c2n1 [Example 133, 7-[(1-{[3-(Pyridin-2-yl)phenyl]methyl}-1H-pyrazol-4-yl)methyl]-3H-[1,2,3]triazolo[4,5-b]pyridin-5-amine] |
| 1 to 100 nM | 1 to 100 nM | CC(C)(C)c1cccc(Cn2cc(Cc3cc(N)nc4[nH]nnc34)cn2)c1 [Example 134, 7-({1-[(3-tert-Butylphenyl)methyl]-1H-pyrazol-4-yl}methyl)-3H-[1,2,3]triazolo[4,5-b]pyridin-5-amine] |
| 1 to 100 nM | 1 to 100 nM | Nc1cc(Cc2cnn(Cc3cccc4c3CCCC4)c2)c2nn[nH]c2n1 [Example 135, 7-{[1-(5,6,7,8-Tetrahydronaphthalen-1-ylmethyl)-1H-pyrazol-4-yl]methyl}-3H-[1,2,3]triazolo[4,5-b]pyridin-5-amine] |
| 1 to 100 nM | 1 to 100 nM | Nc1cc(Cc2cnn(CC3CCc4ccccc4C3)c2)c2nn[nH]c2n1 (centres unmarked) [Example 136, 7-{[1-(1,2,3,4-Tetrahydronaphthalen-2-ylmethyl)-1H-pyrazol-4-yl]methyl}-3H-[1,2,3]triazolo[4,5-b]pyridin-5-amine] |

| IC50 (myeloperoxidase (MPO) [1]) | IC50 (myeloperoxidase (MPO) [2]) | Compound |
| --- | --- | --- |
| 101 to 999 nM | 1 to 100 nM | Cn1nc(Cn2cc(Cc3cc(N)nc4[nH]nnc34)cn2)c2ccccc21 [Example 137, 7-({1-[(1-Methyl-1H-indazol-3-yl)methyl]-1H-pyrazol-4-yl}methyl)-3H-[1,2,3]triazolo[4,5-b]pyridin-5-amine] |
| 101 to 999 nM | 1 to 100 nM | CCn1c(Cn2cc(Cc3cc(N)nc4[nH]nnc34)cn2)nc2ccccc21 [Example 138, 7-((1-((1-Ethyl-1H-benzo[d]imidazol-2-yl)methyl)-1H-pyrazol-4-yl)methyl)-3H-[1,2,3]triazolo[4,5-b]pyridin-5-amine] |
| 101 to 999 nM | 1 to 100 nM | CC1CCN(S(=O)(=O)c2cccc(Cn3cc(Cc4cc(N)nc5[nH]nnc45)cn3)c2)CC1 [Example 139, 7-{[1-({3-[(4-Methylpiperidin-1-yl)sulfonyl]phenyl}methyl)-1H-pyrazol-4-yl]methyl}-3H-[1,2,3]triazolo[4,5-b]pyridin-5-amine] |
| 101 to 999 nM | 1 to 100 nM | Cc1cncc(Oc2cccc(Cn3cc(Cc4cc(N)nc5[nH]nnc45)cn3)c2)n1 [Example 140, 7-{[1-({3-[(6-Methylpyrazin-2-yl)oxy]phenyl}methyl)-1H-pyrazol-4-yl]methyl}-3H-[1,2,3]triazolo[4,5-b]pyridin-5-amine] |
| 1 to 100 nM | 1 to 100 nM | COc1ccc(Cn2cc(Cc3cc(N)nc4[nH]nnc34)cn2)cc1 [Example 141, 7-({1-[(4-Methoxyphenyl)methyl]-1H-pyrazol-4-yl}methyl)-3H-[1,2,3]triazolo[4,5-b]pyridin-5-amine] |
| 101 to 999 nM | 101 to 999 nM | Nc1cc(Cc2cnn(C(CCO)c3ccccc3)c2)c2nn[nH]c2n1 (centres unmarked) [Example 143, 3-(4-((5-Amino-3H-[1,2,3]triazolo[4,5-b]pyridin-7-yl)methyl)-1H-pyrazol-1-yl)-3-phenylpropan-1-ol] |
| 101 to 999 nM | 101 to 999 nM | CC(C)(C)[Si](C)(C)OCC(c1ccccc1)n1cc(Cc2cc(N)nc3[nH]nnc23)cn1 (centres unmarked) [Example 144] |
| 101 to 999 nM | 101 to 999 nM | Nc1cc(Cc2cnn(C(CO)c3ccccc3)c2)c2nn[nH]c2n1 (centres unmarked) [Example 145, 2-(4-((5-Amino-3H-[1,2,3]triazolo[4,5-b]pyridin-7-yl)methyl)-1H-pyrazol-1-yl)-2-phenylethanol] |
| 101 to 999 nM | 101 to 999 nM | Nc1cc(Cc2cnn(C(CCCO)c3ccccc3)c2)c2nn[nH]c2n1 (centres unmarked) [Example 146, 4-[4-({5-Amino-3H-[1,2,3]triazolo[4,5-b]pyridin-7-yl}methyl)-1H-pyrazol-1-yl]-4-phenylbutan-1-ol] |
| 101 to 999 nM | 101 to 999 nM | CC(C)(C)OC(=O)N1CCCc2ccc(Cn3cc(Cc4cc(N)nc5[nH]nnc45)cn3)cc21 [Example 147, tert-Butyl 7-{[4-({5-amino-3H-[1,2,3]triazolo[4,5-b]pyridin-7-yl}methyl)-1H-pyrazol-1-yl]methyl}-1,2,3,4-tetrahydroquinoline-1-carboxylate] |
| 101 to 999 nM | 101 to 999 nM | CC(C)(C)OC(=O)N1CCc2ccc(Cn3cc(Cc4cc(N)nc5[nH]nnc45)cn3)cc2C1 [Example 148, tert-Butyl 7-{[4-({5-amino-3H-[1,2,3]triazolo[4,5-b]pyridin-7-yl}methyl)-1H-pyrazol-1-yl]methyl}-1,2,3,4-tetrahydroisoquinoline-2-carboxylate] |
| 101 to 999 nM | 1 to 100 nM | COc1ccc(Cn2cc(Cc3cc(N)nc4[nH]nnc34)cn2)cn1 [Example 149, 7-({1-[(6-Methoxypyridin-3-yl)methyl]-1H-pyrazol-4-yl}methyl)-3H-[1,2,3]triazolo[4,5-b]pyridin-5-amine] |
| 101 to 999 nM | 1 to 100 nM | Nc1cc(Cc2cnn(Cc3ccc4c(c3)OCO4)c2)c2nn[nH]c2n1 [Example 150, 7-{[1-(2H-1,3-Benzodioxol-5-ylmethyl)-1H-pyrazol-4-yl]methyl}-3H-[1,2,3]triazolo[4,5-b]pyridin-5-amine] |
| 101 to 999 nM | 1 to 100 nM | Nc1cc(Cc2cnn(Cc3ccc4c(c3)OCCO4)c2)c2nn[nH]c2n1 [Example 151, 7-{[1-(2,3-Dihydro-1,4-benzodioxin-6-ylmethyl)-1H-pyrazol-4-yl]methyl}-3H-[1,2,3]triazolo[4,5-b]pyridin-5-amine] |
| 1 to 100 nM | 1000 to 10000 nM | Nc1cc(Cc2cnn(Cc3ccc4c(c3)NCCC4)c2)c2nn[nH]c2n1 [Example 152, 7-{[1-(1,2,3,4-Tetrahydroquinolin-7-ylmethyl)-1H-pyrazol-4-yl]methyl}-3H-[1,2,3]triazolo[4,5-b]pyridin-5-amine] |
